Experimental data: publication PMC11602157, “ZNF512B binds RBBP4 via a variant NuRD interaction motif and aggregates chromatin in a NuRD complex-independent manner” (Nucleic Acids Research, 2024)

Target: T1, RBBP4 (Homo sapiens, UniProt Q09028)
T1 construct: Expression of recombinant RBBP4 protein was done as described ([32]); His-tag (inferred from His-Trap purification); made in house
Experiment: Competitive fluorescence polarization (displacement of FAM-labeled ZNF512B tracer)
Type: binding
Conditions: ratio of competitive ki, ZNF512B vs FOG-1
Protocol: Expression of recombinant RBBP4 protein was done as described ([32]). RBBP4 was purified by FPLC using the Äkta Start (Cytiva) via a His-Trap column (71502768) and subsequently a HiTRAP Q column (29051325) by standard procedures outlined in the instructions of the manufacturer. To determine the dissociation constant (kD), serial dilutions of RBBP4 protein (10–0 μM, 25 μl) in 50 mM Tris/Cl pH 7.5, 150 mM NaCl and 0.02% Triton™ X-100 were added to 25 μl of the fluorescently tagged tracer peptide for a finale volume of 50 μl with 1 nM tracer. The 384-well plate (GBO 781 900) was measured (Tecan Spark 20M) after 60 min and the kD values were calculated by converting the mP values into their corresponding anisotropy (A) values following the equation:
Hereby, A = anisotropy and P = polarization. These values were plotted versus the respective concentrations of the protein with a non-linear regression according to the following equation: […]
Hereby, A is the experimental anisotropy, Af is the anisotropy for the free ligand, Ab is the anisotropy for the fully bound ligand, LT is the total added concentration of ligand, kD is the equilibrium dissociation constant and RT is the total receptor concentration. […] Inhibition constant (ki) values were calculated using the following equation described previously by Wang et al. and the standard deviation was calculated for each ki value ([35]).

T1 sequence (Q09028 whole entry): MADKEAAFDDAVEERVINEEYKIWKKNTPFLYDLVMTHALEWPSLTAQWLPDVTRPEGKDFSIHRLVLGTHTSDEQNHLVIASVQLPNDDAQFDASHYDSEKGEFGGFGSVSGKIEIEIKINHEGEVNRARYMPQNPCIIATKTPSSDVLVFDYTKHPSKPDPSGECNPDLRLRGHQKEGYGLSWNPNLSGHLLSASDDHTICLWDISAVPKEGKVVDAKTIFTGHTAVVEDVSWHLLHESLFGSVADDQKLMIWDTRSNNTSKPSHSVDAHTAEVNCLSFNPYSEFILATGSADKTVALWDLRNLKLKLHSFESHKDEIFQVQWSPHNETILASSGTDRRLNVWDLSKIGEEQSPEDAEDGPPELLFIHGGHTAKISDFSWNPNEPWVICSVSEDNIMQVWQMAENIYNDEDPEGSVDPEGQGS

higher affinity for RBBP4 than FOG-1: > 60 -fold
Structure (SMILES): CC(=O)N[C@@H](CCCCN)C(=O)N[C@@H](Cc1c[nH]cn1)C(=O)N[C@@H](CCCNC(=N)N)C(=O)N[C@@H](CCCNC(=N)N)C(=O)N[C@@H](CCCCN)C(=O)N[C@@H](CCC(N)=O)C(=O)N[C@@H](CCCCN)C(=O)N[C@H](C(=O)N1CCC[C@H]1C(=O)N[C@@H](CCCCN)C(=O)N[C@@H](CCCCN)C(=O)N[C@@H](Cc1ccccc1)C(N)=O)[C@@H](C)O [ZNF512B-WT]
